The supplement of paper PMC10331698
± gives the standard deviation of the averaged measurements.

Legend:
Assay in all cases: level (log10 ratio to DMSO vehicle control); higher = higher biomarker level / cell amount than vehicle control
Conditions in all cases: in DMSO
Octafluoroadipamide = compound: NC(=O)C(F)(F)C(F)(F)C(F)(F)C(F)(F)C(N)=O [Octafluoroadipamide]
Description: (§1)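 BioMAP Diversity Plus panel of 12 human primary cell co-culture systems (3C, 4H, LPS, SAg, BT, BF4T, BE3C, CASM3C, HDF3CGF, KF3CT, MyoF, Mphg). Compounds were added 1 h before stimulation and left for 24 h (MyoF 48 h; BT 72 h for soluble read-outs or 6 d for IgG). Biomarkers were read by ELISA, cytotoxicity by SRB, PBMC viability and proliferation by Alamar Blue. Each well value was divided by the mean of 8 DMSO control wells on the same plate and log10 transformed; duplicate blinded samples were tested at 4 concentrations.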

Heptafluorobutyl iodide = compound: FC(F)(F)C(F)(F)C(F)(F)CI [Heptafluorobutyl iodide]
Description: as §1

[1] = compound: FC(F)(F)C(F)(F)C(F)(F)CC1CO1 [1H,1H-Heptafluorobutyl epoxide]
Description: as §1

[2] = compound: O=S(=O)(F)C(F)(F)C(F)(F)C(F)(F)C(F)(F)C(F)(F)C(F)(F)C(F)(F)C(F)(F)F [Perfluorooctanesulfonyl fluoride]
Description: as §1

[3] = compound: O=C(O)C(F)(F)C(F)(F)C(F)(F)C(F)(F)C(F)(F)C(F)(F)C(F)(F)C(F)(F)C(F)(F)C(F)F [11-H-Perfluoroundecanoic acid]
Description: as §1

| Test System | level (log10) (Octafluoroadipamide; 6700 nM) | level (log10) (Octafluoroadipamide; 20000 nM) | level (log10) (Octafluoroadipamide; 60000 nM) | level (log10) (Heptafluorobutyl iodide; 6700 nM) | level (log10) (Heptafluorobutyl iodide; 20000 nM) | level (log10) (Heptafluorobutyl iodide; 60000 nM) | level (log10) ([1]; 6700 nM) | level (log10) ([1]; 20000 nM) | level (log10) ([1]; 60000 nM) | level (log10) ([2]; 6700 nM) | level (log10) ([2]; 20000 nM) | level (log10) ([2]; 60000 nM) | level (log10) ([3]; 6700 nM) | level (log10) ([3]; 20000 nM) |
| --- | --- | --- | --- | --- | --- | --- | --- | --- | --- | --- | --- | --- | --- | --- |
| HDF3CGF:CD54/ICAM-1 | 0.011 ± 0.027 | 0.043 ± 0.0099 | 0.055 ± 0.073 | -0.004 ± 0.0028 | 0.0005 ± 0.005 | 0.002 ± 0.0028 | -0.0045 ± 0.022 | -0.0115 ± 0.04 | -0.0215 ± 0.06 | -0.013 ± 0.018 | -0.011 ± 0.0014 | -0.006 ± 0.013 | -0.058 ± 0.0085 | -0.0635 ± 0.0035 |
| KF3CT:CXCL9/MIG | 0.0075 ± 0.0064 | 0.0035 ± 0.005 | 0.0075 ± 0.005 | -0.005 ± 0.0014 | -0.008 ± 0.013 | -0.003 ± 0.0071 | -0.0095 ± 0.00071 | -0.002 ± 0.025 | -0.0085 ± 0.012 | 0.007 ± 0.0057 | -0.007 ± 0.0085 | 0.006 ± 0.0085 | -0.006 ± 0.0042 | -0.028 ± 0.0028 |
| MyoF:Decorin | 0.0105 ± 0.035 | -0.0025 ± 0.0092 | 0.017 ± 0.028 | 0.0045 ± 0.016 | -0.016 ± 0.0071 | 0.005 ± 0.0042 | -0.01 ± 0.014 | -0.009 ± 0.028 | 0.009 ± 0.035 | 0.001 ± 0.011 | -0.013 ± 0.0042 | 0.016 ± 0.0057 | 0.0415 ± 0.077 | 0.052 ± 0.031 |
| 4H:SRB | -0.0065 ± 0.022 | -0.001 ± 0.025 | -0.003 ± 0.013 | -0.001 ± 0.0028 | 0.0045 ± 0.0064 | 0.011 ± 0.0099 | 0.008 ± 0.023 | 0.007 ± 0.0057 | -0.02 ± 0.0071 | 0.0015 ± 0.00071 | 0.001 ± 0.0028 | -0.0035 ± 0.0064 | 0.0145 ± 0.0092 | 0.0105 ± 0.018 |
| KF3CT:MMP-9 | -0.0325 ± 0.016 | -0.023 ± 0.0014 | -0.0115 ± 0.03 | -0.0195 ± 0.035 | -0.0185 ± 0.033 | -0.005 ± 0.021 | -0.0085 ± 0.028 | -0.012 ± 0.0099 | -0.0205 ± 0.013 | -0.012 ± 0.035 | -0.0185 ± 0.032 | -0.0075 ± 0.035 | -0.0735 ± 0.011 | -0.298 ± 0.0071 |
| 3C:SRB | -0.0105 ± 0.047 | -0.008 ± 0.052 | -0.005 ± 0.03 | -0.0045 ± 0.0064 | -0.0025 ± 0.012 | 0.0025 ± 0.021 | 0.002 ± 0.035 | 0.0005 ± 0.018 | -0.0185 ± 0.0064 | 0.0035 ± 0.00071 | -0.0035 ± 0.0078 | -0.003 ± 0.013 | 0.0095 ± 0.012 | 0.01 ± 0.025 |
| MyoF:MMP-1 | 0.0115 ± 0.036 | -0.0085 ± 0.0078 | 0.0325 ± 0.079 | -0.022 ± 0.0099 | -0.0545 ± 0.0078 | -0.0125 ± 0.039 | 0.01 ± 0.013 | -0.013 ± 0.051 | 0.0455 ± 0.1 | -0.0275 ± 0.013 | -0.011 ± 0.0085 | -0.007 ± 0.047 | -0.076 ± 0.021 | -0.027 ± 0.04 |
| MyoF:TIMP-1 | -0.0325 ± 0.023 | 0.004 ± 0.033 | 0.021 ± 0.021 | -0.059 ± 0.088 | -0.068 ± 0.068 | -0.0755 ± 0.063 | -0.025 ± 0.018 | -0.023 ± 0.035 | -0.0125 ± 0.015 | 0.006 ± 0.0099 | 0.0035 ± 0.016 | 0.004 ± 0.0014 | 0.0255 ± 0.029 | 0.063 ± 0.0057 |
| lMphg:CD106/VCAM-1 | 0.014 ± 0.013 | 0.019 ± 0.0085 | 0.0125 ± 0.0021 | -0.0115 ± 0.005 | -0.022 ± 0.0085 | -0.0175 ± 0.016 | 0.003 ± 0.011 | 0.012 ± 0.016 | 0.0095 ± 0.011 | 0.009 ± 0.017 | 0.0205 ± 0.012 | -0.0125 ± 0.0092 | -0.0065 ± 0.0035 | 0.014 ± 0.023 |
| HDF3CGF:M-CSF | -0.017 ± 0.054 | -0.0215 ± 0.073 | 0.023 ± 0.0028 | -0.0665 ± 0.063 | -0.065 ± 0.023 | -0.07 ± 0.027 | -0.017 ± 0.064 | -0.029 ± 0.044 | -0.0245 ± 0.0092 | 0.0175 ± 0.005 | 0.0015 ± 0.0078 | -0.013 ± 0.058 | -0.0345 ± 0.005 | -0.108 ± 0.029 |
| lMphg:CXCL8/IL-8 | 0.003 ± 0.054 | -0.0095 ± 0.069 | 0.0455 ± 0.026 | -0.0335 ± 0.028 | -0.0275 ± 0.00071 | -0.0415 ± 0.0078 | -0.0265 ± 0.015 | -0.019 ± 0.021 | -0.0105 ± 0.029 | 0.0275 ± 0.0078 | 0.0145 ± 0.013 | 0.0335 ± 0.011 | -0.0045 ± 0.0078 | -0.031 ± 0.0042 |
| CASM3C:CXCL8/IL-8 | -0.007 ± 0.035 | 0.005 ± 0.0028 | -0.005 ± 0.031 | 0.0015 ± 0.012 | -0.014 ± 0.014 | -0.001 ± 0.014 | 0 ± 0.017 | 0.0005 ± 0.0078 | -0.0035 ± 0.00071 | 0.0025 ± 0.00071 | -0.0035 ± 0.0035 | 0.0035 ± 0.016 | -0.001 ± 0.0057 | -0.011 ± 0.0014 |
| HDF3CGF:Collagen III | 0.0035 ± 0.044 | 0.0225 ± 0.00071 | 0.023 ± 0.052 | -0.043 ± 0.12 | -0.051 ± 0.018 | -0.0075 ± 0.11 | -0.0355 ± 0.1 | -0.0515 ± 0.1 | -0.0555 ± 0.1 | 0.055 ± 0.016 | 0.039 ± 0.025 | -0.03 ± 0.055 | -0.172 ± 0.033 | -0.294 ± 0.03 |
| BE3C:SRB | -0.0005 ± 0.0021 | -0.0055 ± 0.005 | 0.006 ± 0.011 | 0.002 ± 0.0028 | -0.003 ± 0.0071 | 0.0035 ± 0.00071 | -0.0035 ± 0.00071 | 0.0015 ± 0.00071 | 0.007 | -0.003 ± 0.0014 | 0.0005 ± 0.005 | 0.0045 ± 0.021 | -0.0095 ± 0.0064 | -0.235 ± 0.011 |
| lMphg:CD40 | -0.0055 ± 0.0021 | -0.0125 ± 0.0035 | 0.0155 ± 0.00071 | -0.025 ± 0.031 | -0.0065 ± 0.013 | -0.024 ± 0.0057 | -0.005 ± 0.025 | -0.001 ± 0.016 | 0.0045 ± 0.0021 | -0.023 ± 0.051 | -0.0205 ± 0.049 | -0.0575 ± 0.042 | -0.0365 ± 0.005 | -0.04 ± 0.021 |
| KF3CT:TIMP-2 | -0.0175 ± 0.00071 | -0.0085 ± 0.018 | 0.0265 ± 0.0021 | -0.023 ± 0.018 | 0.0135 ± 0.00071 | -0.0125 ± 0.015 | 0.039 ± 0.0042 | -0.006 ± 0.016 | 0.0365 ± 0.06 | -0.016 ± 0.016 | -0.0245 ± 0.022 | -0.019 ± 0.038 | -0.001 ± 0.0071 | -0.012 ± 0.0071 |
| lMphg:CD62E/E-Selectin | 0.0095 ± 0.00071 | 0.002 ± 0.0042 | 0.007 ± 0.016 | -0.0065 ± 0.011 | -0.0065 ± 0.005 | 0.0085 ± 0.019 | -0.001 ± 0.059 | -0.005 ± 0.035 | 0.0525 ± 0.025 | -0.0175 ± 0.013 | -0.0205 ± 0.0035 | -0.028 ± 0.014 | -0.025 ± 0.023 | -0.028 ± 0.034 |
| HDF3CGF:CCL2/MCP-1 | 0.003 | -0.019 ± 0.028 | -0.0115 ± 0.005 | -0.01 ± 0.0057 | -0.013 ± 0.0057 | -0.0025 ± 0.025 | -0.0325 ± 0.032 | -0.034 ± 0.02 | -0.02 ± 0.0099 | -0.0035 ± 0.028 | 0.007 ± 0.023 | -0.007 ± 0.072 | 0.0125 ± 0.0064 | -0.065 ± 0.014 |
| lMphg:CCL3/MIP-1alpha | 0.0425 ± 0.032 | 0.019 ± 0.047 | 0.0295 ± 0.013 | 0.023 ± 0.079 | 0.0315 ± 0.11 | 0.06 ± 0.045 | -0.039 ± 0.0057 | -0.0135 ± 0.019 | 0.0135 ± 0.015 | -0.0035 ± 0.053 | -0.004 ± 0.021 | -0.001 ± 0.017 | -0.023 ± 0.023 | -0.027 ± 0.0057 |
